Structures are written as SMILES. A value given as a limit tells only on which side of the number the result lay.

The subject of the assay is wild-type IDH1 (αKG) in HT1080 cells. The assay is described as follows: HT1080 cell assay, intracellular αKG. It counts as cell-based. To be noted: highest concentration tested shown if curve did not reach 50%.
As to `C=CC(=O)N1CCN(C(CC2CC2)c2ccc([C@H](C)Nc3ncc4c(n3)N(C)C(=O)OC4)cc2)CC1` (single isomer, unassigned) [Example 3], the IC50 – broadly, the concentration that gives 50% inhibition – is greater than 0.2 µM.
In the case of `C=CC(=O)N1CCN(C(CC2CC2)c2ccc([C@H](C)Nc3ncc4c(n3)N(C)C(=O)OC4)cc2)CC1` (single isomer, unassigned) [Example 4] it was greater than 0.2 µM.
In the case of `C=CC(=O)N1CCN(C(CC(C)C)c2ccc([C@H](C)Nc3ncc4c(n3)N(CC)C(=O)OC4)cc2)CC1` (single isomer, unassigned) [Example 7] it was greater than 0.2 µM; in that of `C=CC(=O)N1CCN(C(CC(C)C)c2ccc([C@H](C)Nc3ncc4c(n3)N(CC)C(=O)OC4)cc2)CC1` (single isomer, unassigned) [Example 8], greater than 0.2 µM; in that of `C=CC(=O)N1CCN(C(CC2CC2)c2ccc([C@H](C)Nc3cc4c(cn3)COC(=O)N4C)cc2)CC1` (single isomer, unassigned) [Example 9], greater than 20 µM.
In the case of `C=CC(=O)N1CCN(C(CC2CC2)c2ccc([C@H](C)Nc3cc4c(cn3)COC(=O)N4C)cc2)CC1` (single isomer, unassigned) [Example 10] it was greater than 20 µM.
Take `C=CC(=O)N1CCN(C(CC)c2ccc([C@H](C)Nc3ncc4c(n3)N(CC)C(=O)OC4)cc2)CC1` (single isomer, unassigned) [Example 11]: the IC50 is greater than 20 µM.
In the case of `C=CC(=O)N1CCN(C(CC)c2ccc([C@H](C)Nc3ncc4c(n3)N(CC)C(=O)OC4)cc2)CC1` (single isomer, unassigned) [Example 12] it was greater than 20 µM; in that of `C=CC(=O)N1CCN(C(CCOC)c2ccc([C@H](C)Nc3ncc4c(n3)N(CC)C(=O)OC4)cc2)CC1` (single isomer, unassigned) [Example 13], greater than 20 µM; in that of `C=CC(=O)N1CCN(C(CCOC)c2ccc([C@H](C)Nc3ncc4c(n3)N(CC)C(=O)OC4)cc2)CC1` (single isomer, unassigned) [Example 14], greater than 20 µM.
